Results on 15 compounds are retold here after patent publication US20160296499A1, “Spiroindoline Antiparasitic Derivatives” (ZOETIS SERVICES LLC, priority 2013, published 2016).

A word on the Ki: it is a dissociation constant, usually derived from enzyme kinetics or from competition with a known ligand.

Read-outs that look alike come from different tables or passages of the source.

Data set [1] concerns Dirofilaria immitis microfilariae. Put plainly: Dirofilaria immitis, Microfilariae (DiMF) In Vitro Assay.
Data set [2] has as its target T1, bovine vesicular acetylcholine transporter (VAChT) (Bos taurus, UniProt E1BK36).
T1 sequence (E1BK36 1-524): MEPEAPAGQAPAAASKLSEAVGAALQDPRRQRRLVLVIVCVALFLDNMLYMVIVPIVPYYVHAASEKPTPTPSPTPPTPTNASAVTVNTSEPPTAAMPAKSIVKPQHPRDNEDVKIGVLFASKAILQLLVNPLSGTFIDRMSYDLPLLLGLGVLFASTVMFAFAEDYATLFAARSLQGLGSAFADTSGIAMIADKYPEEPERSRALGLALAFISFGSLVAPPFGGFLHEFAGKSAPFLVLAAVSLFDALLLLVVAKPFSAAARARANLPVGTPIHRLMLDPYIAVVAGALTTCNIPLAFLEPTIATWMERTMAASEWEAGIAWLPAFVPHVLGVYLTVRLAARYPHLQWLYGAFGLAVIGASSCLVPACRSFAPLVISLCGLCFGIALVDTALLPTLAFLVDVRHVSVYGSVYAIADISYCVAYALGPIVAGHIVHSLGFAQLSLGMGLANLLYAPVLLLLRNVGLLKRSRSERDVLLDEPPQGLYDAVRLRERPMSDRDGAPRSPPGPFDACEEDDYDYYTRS
Put plainly: Radioligand Binding Assay. Conditions: Bovine binding Ki, CHO-K1 membranes with recombinant bovine VAChT, [3H]Compound X6 0.3 nM.

The subject of data set [3] is Haemonchus contortus L3. Put plainly: Haemonchus contortus, Larvae Stage 3 (HcL3) In Vitro Assay.
The target in data set [4] is T2, vertebrate VAChT (Homo sapiens, UniProt Q16572).
T2 sequence (Q16572 1-532): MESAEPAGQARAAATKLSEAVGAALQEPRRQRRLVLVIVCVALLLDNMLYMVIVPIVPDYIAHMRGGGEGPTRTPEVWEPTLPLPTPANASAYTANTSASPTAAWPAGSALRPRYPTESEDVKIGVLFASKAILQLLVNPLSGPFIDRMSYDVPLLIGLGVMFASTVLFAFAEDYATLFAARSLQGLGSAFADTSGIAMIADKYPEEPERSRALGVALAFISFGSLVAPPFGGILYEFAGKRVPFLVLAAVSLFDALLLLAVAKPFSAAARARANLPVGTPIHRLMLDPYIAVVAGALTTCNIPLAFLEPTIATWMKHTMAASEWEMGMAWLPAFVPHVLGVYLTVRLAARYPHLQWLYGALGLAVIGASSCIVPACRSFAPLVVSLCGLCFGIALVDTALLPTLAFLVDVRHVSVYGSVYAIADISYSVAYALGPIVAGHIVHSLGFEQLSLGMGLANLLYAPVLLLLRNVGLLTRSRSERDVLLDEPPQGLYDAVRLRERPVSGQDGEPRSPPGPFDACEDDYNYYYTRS
Conditions: Khare et. al.; cited from earlier work.

The subject of data set [5] is mammals. Conditions: Brittain et. al.; cited from earlier work.
The mark [6] stands for this setting: Dirofilaria immitis, 72 h, read-out: Di MF, MEC, decrease in microfilariae motility by visual assessment, curve starting at 100 μM.
Where [7] appears, read: Haemonchus contortus, 96 h, read-out: HcL3 MEC, Minimal Effective Concentration whereby worm motility is inhibited by approximately 70%, 37° C., tested 0.001-100 μM.
Setting [8] is: Dirofilaria immitis, 72 hours, read-out: Di MF.
Setting [9] is: Haemonchus contortus, 96 hours, 37° C., read-out: HcL3 MEC.

As for `O=C(NCc1ccnc(C(F)(F)F)c1)N1CC2(CCN(C/C=C/c3ccc(F)cc3)CC2)c2cc(OC(F)(F)F)ccc21` [Example 175, (E)-1′-(3-(4-fluorophenyl)allyl)-5-(trifluoromethoxy)-N-((2-(trifluoromethyl)pyridin-4-yl)methyl)spiro[indoline-3,4′-piperidine]-1-carboxamide], the minimal effective concentration came out at 3.3 µM in data set [1] (setting [6]) and 24.5 µM in data set [3] (setting [7]). For the same compound, in data set [2], the Ki stood at 452 nM.

On to `N#Cc1ccc(/C=C/CN2CCC3(CC2)CN(C(=O)NCc2ccnc(C(F)(F)F)c2)c2ccc(OC(F)(F)F)cc23)cc1` [Example 176, (E)-1′-(3-(4-cyanophenyl)allyl)-5-(trifluoromethoxy)-N-((2-(trifluoromethyl)pyridin-4-yl)methyl)spiro[indoline-3,4′-piperidine]-1-carboxamide], for which the minimal effective concentration is 3.3 µM in data set [1] (setting [6]) and 33 µM in data set [3] (setting [7]). Further, the Ki in data set [2] was 288 nM.

For the compound `O=C(NCc1ccnc(C(F)(F)F)c1)N1CC2(CCN(C/C=C/c3ccc(C(F)(F)F)cc3)CC2)c2cc(OC(F)(F)F)ccc21` [Example 177, (E)-5-(trifluoromethoxy)-1′-(3-(4-(trifluoromethyl)phenyl)allyl)-N-((2-(trifluoromethyl)pyridin-4-yl)methyl)spiro[indoline-3,4′-piperidine]-1-carboxamide], the minimal effective concentration in data set [1] (setting [6]) amounted to 3.3 µM; in data set [3] (setting [7]) it was 100 µM. Moreover, the Ki in data set [2] is 1670 nM.

For `O=C(NCc1ccnc(C(F)(F)F)c1)N1CC2(CCN(C/C=C/c3ccc(OC(F)(F)F)cc3)CC2)c2cc(OC(F)(F)F)ccc21` [Example 178, (E)-5-(trifluoromethoxy)-1′-(3-(4-(trifluoromethoxy)phenyl)allyl)-N-((2-(trifluoromethyl)pyridin-4-yl)methyl)spiro[indoline-3,4′-piperidine]-1-carboxamide], the minimal effective concentration was 3.3 µM in data set [1] (setting [6]) and 100 µM in data set [3] (setting [7]). Besides, the Ki in data set [2] was found to be 760 nM.

`O=C(NCc1ccnc(C(F)(F)F)c1)N1CC2(CCN(C/C=C/c3ccc(Cl)cc3)CC2)c2cc(OC(F)(F)F)ccc21` [Example 179, (E)-1′-(3-(4-chlorophenyl)allyl)-5-(trifluoromethoxy)-N-((2-(trifluoromethyl)pyridin-4-yl)methyl)spiro[indoline-3,4′-piperidine]-1-carboxamide]: the minimal effective concentration was determined as 3.3 µM in data set [1] (setting [8]) and 7.6 µM in data set [3] (setting [9]). In addition, the Ki in data set [2] was found to be 371 nM.

As to `O=C(NCc1ccnc(Cl)c1)N1CC2(CCN(C/C=C/c3ccc(OC(F)(F)F)cc3)CC2)c2cc(OC(F)(F)F)ccc21` [Example 180, (E)-N-((2-chloropyridin-4-yl)methyl)-5-(trifluoromethoxy)-1′-(3-(4-(trifluoromethoxy)phenyl)allyl)spiro[indoline-3,4′-piperidine]-1-carboxamide], the minimal effective concentration in data set [1] (setting [6]) and in data set [3] (setting [7]) was 10 µM in each case. Also, the Ki in data set [2] was determined as 437 nM.

For the compound `O=C(NCc1ccnc(Cl)c1)N1CC2(CCN(C/C=C/c3ccc(C(F)(F)F)cc3)CC2)c2cc(OC(F)(F)F)ccc21` [Example 181, (E)-N-((2-chloropyridin-4-yl)methyl)-5-(trifluoromethoxy)-1′-(3-(4-(trifluoromethyl)phenyl)allyl)spiro[indoline-3,4′-piperidine]-1-carboxamide], the minimal effective concentration in data set [1] (setting [6]) was 10 µM; in data set [3] (setting [7]), 100 µM. In data set [2], the Ki came to 816 nM.

As to `O=C(NCc1ccnc(Cl)c1)N1CC2(CCN(C/C=C/c3ccc(C(F)(F)F)cn3)CC2)c2cc(OC(F)(F)F)ccc21` [Example 182, (E)-N-((2-chloropyridin-4-yl)methyl)-5-(trifluoromethoxy)-1′-(3-(5-(trifluoromethyl)pyridin-2-yl)allyl)spiro[indoline-3,4′-piperidine]-1-carboxamide], the minimal effective concentration in data set [1] (setting [6]) and in data set [3] (setting [7]) was 10 µM throughout. Besides, the Ki in data set [2] is 1470 nM.

With `COc1cc(CNC(=O)N2CC3(CCN(C/C=C/c4ccc(C(F)(F)F)cc4)CC3)c3cc(Cl)ccc32)ccn1` [Example 183, (E)-5-chloro-N-((2-methoxypyridin-4-yl)methyl)-1′-(3-(4-(trifluoromethyl)phenyl)allyl)spiro[indoline-3,4′-piperidine]-1-carboxamide], the values for the minimal effective concentration in data set [1] (setting [6]) and in data set [3] (setting [7]) were 3.3 µM and 10 µM, respectively. Further, the Ki in data set [2] was found to be 184 nM.

`O=C(NCc1ccnc(F)c1)N1CC2(CCN(C/C=C/c3ccc(C(F)(F)F)cc3)CC2)c2cc(Cl)ccc21` [Example 184, (E)-5-chloro-N-((2-fluoropyridin-4-yl)methyl)-1′-(3-(4-(trifluoromethyl)phenyl)allyl)spiro[indoline-3,4′-piperidine]-1-carboxamide]: the minimal effective concentration in data set [1] (setting [6]) and in data set [3] (setting [7]) was 3.3 µM each time. Moreover, the Ki in data set [2] came out at 224 nM.

Regarding `O=C(NCc1ccnc(Cl)c1)N1CC2(CCN(C/C=C/c3ccc(Cl)cc3)CC2)c2cc(OC(F)(F)F)ccc21` [Example 185, (E)-1′-(3-(4-chlorophenyl)allyl)-N-((2-chloropyridin-4-yl)methyl)-5-(trifluoromethoxy)spiro[indoline-3,4′-piperidine]-1-carboxamide], the minimal effective concentration in data set [1] (MEC, decrease in microfilariae motility by visual assessment, 72 hours, curve starting at 100 μM, read-out: Di MF) amounted to 10.0 µM; in data set [3] (Minimal Effective Concentration whereby worm motility is inhibited by approximately 70%, 96 hours, 37° C., tested 0.001-100 μM, read-out: HcL3 MEC) it was 3.3 µM. For the same compound, the Ki in data set [2] was 283 nM.

Consider `Cc1noc(C)c1-c1ccc2c(c1)C1(CCN(C/C=C/c3ccc(Cl)cc3)CC1)CN2C(=O)NCc1ccnc(-c2c(C)noc2C)c1` [Example 186, (E)-1′-(3-(4-chlorophenyl)allyl)-5-(3,5-dimethylisoxazol-4-yl)-N-((2-(3,5-dimethylisoxazol-4-yl)pyridin-4-yl)methyl)spiro[indoline-3,4′-piperidine]-1-carboxamide], for which the minimal effective concentration in data set [1] (setting [6]) stood at 3.3 µM; in data set [3] (setting [7]), 100 µM. Moreover, the Ki in data set [2] is 1360 nM.

In the case of `Cc1noc(C)c1-c1ccc2c(c1)C1(CCN(C/C=C/c3ccc(Cl)cc3)CC1)CN2C(=O)NCc1ccnc(Cl)c1` [Example 187, (E)-1′-(3-(4-chlorophenyl)allyl)-N-((2-chloropyridin-4-yl)methyl)-5-(3,5-dimethylisoxazol-4-yl)spiro[indoline-3,4′-piperidine]-1-carboxamide], the minimal effective concentration in data set [1] (setting [8]) turned out to be 3.3 µM; in data set [3] (setting [9]) it was 100 µM. The Ki in data set [2] amounted to 2470 nM.

`O=C(NCc1cnc(Cl)s1)N1CC2(CCN(C/C=C/c3ccc(Cl)cc3)CC2)c2cc(OC(F)(F)F)ccc21` [Example 189, (E)-1′-(3-(4-chlorophenyl)allyl)-N-((2-chlorothiazol-5-yl)methyl)-5-(trifluoromethoxy)spiro[indoline-3,4′-piperidine]-1-carboxamide]: the values for the minimal effective concentration in data set [1] (setting [8]) and in data set [3] (setting [9]) were 14 µM and 100 µM, respectively. For the same compound, the Ki in data set [2] was determined as 792 nM.

With `OC1CCCCC1N1CCC(c2ccccc2)CC1` (centres unmarked) [Vesamicol, 2-(4-phenyl-piperidino)-cyclohexanol], in data set [4], the “binding affinity to vertebrate VAChT” value is “high affinity”. Further, in data set [5], the toxicity to mammals result is listed as “highly toxic”.
